For the experiment, the target named is DNA-PK (Homo sapiens (Human), UniProt P78527). Put plainly: DNA-PK/Biochemical Assay (FlashPlate kinase assay). As to conditions: 5 μM ATP, 90 min, room temperature. How it is done: The kinase assay was carried out in streptavidin-coated […] microtitre FlashPlates®. To this end, 1.5 μg of the DNA-PK/protein complex and 100 ng of biotinylated substrate, such as, for example, […] biotin-NH2 (“biotin-DNA-PK peptide”), in a total volume of 36.5 μl (34.25 mM HEPES/KOH, 7.85 mM Tris-HCl, 68.5 mM KCl, 5 μM ATP, 6.85 mM MgCl2, 0.5 mM EDTA, 0.14 mM EGTA, 0.69 mM DTT, pH 7.4), were incubated at room temperature for 90 min with 500 ng of DNA from calf thymus, 0.1 μCi of 33P-ATP and 1.8% of DMSO per well with or without the test compound. The reaction was stopped using 50 μl/well of 200 mM EDTA. After incubation for a further 30 min at room temperature, the liquid was removed. Each well was washed three times with 100 μl of 0.9% sodium chloride solution. A non-specific reaction (blank value) was determined using 10 μM of a proprietary kinase inhibitor. The radioactivity measurement was carried out by means of a TopCount. IC50 values were calculated in RS1. • Literature: Kashishian et al. (2003) Molecular Cancer Therapeutics 1257.

pIC50: −log10 of the molar value.

As usually defined, the pIC50 is −log10 of the IC50, conventionally taken in molar units. Read a low pIC50 as a high IC50.

Regarding `COc1cc2ncc3[nH]nc(-c4ccc(C#N)cc4)c3c2cc1OC` [Compound 1, 4-(7,8-Dimethoxy-3H-pyrazolo[3,4-c]quinolin-1-yl)benzonitrile], the pIC50 is greater than 7.00.

`COc1cc2ncc3c(c(-c4ccc(C#N)cc4)nn3C)c2cc1OC` [Compound 2, 4-(7,8-Dimethoxy-3-methyl-3H-pyrazolo-[3,4-c]quinolin-1-yl)-benzonitrile] gave a pIC50 greater than 7.00.

In the case of `COc1cc2ncc3c(c(-c4ccc(C#N)c(Br)c4)nn3C)c2cc1OC` [Compound 3], the pIC50 is greater than 7.00.

As to `COc1cc2ncc3c(c(-c4ccc(C#N)cc4)nn3C)c2cc1O` [Compound 5, 4-(8-Hydroxy-7-methoxy-3-methyl-3H-pyrazolo-[3,4-c]quinolin-1-yl)-benzonitrile], the pIC50 was greater than 7.00.

On to `COc1cc2ncc3c(c(-c4ccc(C#N)cc4F)nn3C)c2cc1O` [Compound 6, 3-Fluoro-4-(8-hydroxy-7-methoxy-3-methyl-3H-pyrazolo[3,4-c]quinolin-1-yl)benzonitrile], for which the pIC50 was greater than 7.00.

Consider `COc1cc2ncc3[nH]nc(-c4ccc(C#N)c(Cl)c4)c3c2cc1OC` [Compound 7, 2-Chloro-4-(7,8-dimethoxy-3H-pyrazolo-[3,4-c]quinolin-1-yl)-benzonitrile], for which the negative-log IC50 (pIC50) was greater than 7.00.

With `COc1cc2ncc3c(c(-c4ccc(C#N)cc4)nn3C)c2cc1O[C@@H](C(N)=O)c1ccc(F)cc1` [Compound 9, (R)-2-[1-(4-Cyanophenyl)-7-methoxy-3-methyl-3H-pyrazolo[3,4-c]quinolin-8-yloxy]-2-(4-fluorophenyl)-acetamide], the pIC50 is greater than 7.00.

`COc1cc2ncc3c(c(-c4ccc(C#N)cc4)nn3C)c2cc1O[C@H](C(N)=O)c1ccc(F)cc1` [Compound 10, (S)-2-[1-(4-Cyanophenyl)-7-methoxy-3-methyl-3H-pyrazolo[3,4-c]quinolin-8-yloxy]-2-(4-fluorophenyl)-acetamide]: the pIC50 was greater than 7.00.

On to `COc1cc2ncc3c(c(-c4ccc(C#N)cc4)nn3C)c2cc1OCc1ccncc1` [Compound 11, 4-[7-Methoxy-3-methyl-8-(pyridin-4-ylmethoxy)-3H-pyrazolo[3,4-c]quinolin-1-yl]-benzonitrile], for which the negative-log IC50 (pIC50) is greater than 7.00.

Turning to `COc1cc2ncc3c(c(-c4ccc(C#N)cc4)nn3C)c2cc1OCc1cccnc1` [Compound 12, 4-[7-Methoxy-3-methyl-8-(pyridin-3-ylmethoxy)-3H-pyrazolo[3,4-c]quinolin-1-yl]-benzonitrile], the pIC50 was greater than 7.00.

In turn, `COc1cc2ncc3c(c(-c4ccc(C#N)cc4)nn3C)c2cc1OCc1ccccn1` [Compound 13, 4-[7-Methoxy-3-methyl-8-(pyridin-2-ylmethoxy)-3H-pyrazolo[3,4-c]quinolin-1-yl]-benzonitrile] showed a pIC50 of less than 6.30.

Compound `COc1cc2ncc3c(c(-c4ccc(C#N)cc4)nn3C)c2cc1OCc1ccccc1C#N` [Compound 14, 4-[8-(2-Cyanobenzyloxy)-7-methoxy-3-methyl-8-3H-pyrazolo[3,4-c]quinolin-1-yl]-benzonitrile] gave a pIC50 of 6.30 to 7.00.

In turn, `COc1cc2ncc3c(c(-c4ccc(C#N)cc4)nn3C)c2cc1OCc1ccc(F)cc1` [Compound 15, 4-[8-(4-Fluorobenzyloxy)-7-methoxy-3-methyl-3H-pyrazolo[3,4-c]quinolin-1-yl]-benzonitrile] gave a pIC50 greater than 7.00.

Turning to `COc1cc2ncc3c(c(-c4ccc(C#N)cc4)nn3C)c2cc1OC(F)F` [Compound 16, 4-(8-Difluoromethoxy-7-methoxy-3-methyl-3H-pyrazolo[3,4-c]quinolin-1-yl)-benzonitrile], the pIC50 was greater than 7.00.

In turn, `COc1cc2ncc3c(c(-c4ccc(C#N)cc4)nn3C)c2cc1OC(F)(F)c1ccccc1` [Compound 17, 4-[8-(Difluorophenyl-methoxy)-7-methoxy-3-methyl-3H-pyrazolo[3,4-c]-quinolin-1-yl]benzonitrile] had a pIC50 of 6.30 to 7.00.

In turn, `COC(=O)C(Oc1cc2c(cc1OC)ncc1c2c(-c2ccc(C#N)cc2)nn1C)c1ccc(F)cc1` (stereo not drawn) [Compound 18, Methyl 1-(4-cyanophenyl)-7-methoxy-3-methyl-3H-pyrazolo[3,4-c]quinolin-8-yloxy]-(4-fluorophenyl)-acetate] gave a pIC50 of 6.30 to 7.00.

`COc1cc2ncc3c(c(-c4ccc(C#N)cc4)nn3C)c2cc1OC(C(=O)O)c1ccc(F)cc1` (stereo not drawn) [Compound 19, [1-(4-Cyanophenyl)-7-methoxy-3-methyl-3H-pyrazolo[3,4-c]quinolin-8-yloxy]-(4-fluorophenyl)acetic acid] had a pIC50 greater than 7.00.

The compound `COc1cc2ncc3c(c(-c4ccc(C#N)cc4)nn3C)c2cc1OC(C(=O)O)c1ccccc1` (stereo not drawn) [Compound 20, [1-(4-Cyanophenyl)-7-methoxy-3-methyl-3H-pyrazolo[3,4-c]quinolin-8-yloxy]phenylacetic acid] had a pIC50 greater than 7.00.

`COc1cc2ncc3c(c(-c4ccc(C#N)cc4)nn3C)c2cc1OC(C(=O)O)c1cccs1` (stereo not drawn) [Compound 21, [1-(4-Cyanophenyl)-7-methoxy-3-methyl-3H-pyrazolo[3,4-c]quinolin-8-yloxy]thiophen-2-ylacetic acid]: the pIC50 was greater than 7.00.

As for `COc1cc2ncc3c(c(-c4ccc(C#N)cc4)nn3C)c2cc1OC(C)(C(=O)O)c1ccccc1` (stereo not drawn) [Compound 22, 2-[1-(4-Cyanophenyl)-7-methoxy-3-methyl-3H-pyrazolo[3,4-c]quinolin-8-yloxy]-2-phenylpropanoic acid], the pIC50 is less than 6.30.

Compound `COc1cc2ncc3c(c(-c4ccc(C#N)cc4F)nn3C)c2cc1OC(C(N)=O)c1ccc(F)cc1` (stereo not drawn) [Compound 23, 2-[1-(4-Cyano-2-fluoro-phenyl)-7-methoxy-3-methyl-3H-pyrazolo[3,4-c]quinolin-8-yloxy]-2-(4-fluorophenyl)-acetamide] had a pIC50 greater than 7.00.

On to `COc1cc2ncc3c(c(-c4ccc(C#N)cc4)nn3C)c2cc1OS(=O)(=O)c1ccc(C)cc1` [Compound 24, 1-(4-Cyanophenyl)-7-methoxy-3-methyl-3H-pyrazolo[3,4-c]quinolin-8-yl toluene-4-sulfonate], for which the pIC50 is 6.30 to 7.00.

`COc1cc2ncc3c(c(-c4ccc(C#N)cc4)nn3C)c2cc1OP(=O)(O)c1ccccc1` [Compound 25, 1-(4-Cyanophenyl)-7-methoxy-3-methyl-3H-pyrazolo[3,4-c]quinolin-8-yl phenylphosphonate] had a negative-log IC50 (pIC50) of 6.30 to 7.00.

In turn, `COc1cc2c(cc1OC(F)F)ncc1c2c(-c2ccc(C#N)cc2)nn1C` [Compound 26, 4-(7-Difluoromethoxy-8-methoxy-3-methyl-3H-pyrazolo[3,4-c]quinolin-1-yl)-benzonitrile] showed a pIC50 of less than 6.30.

The compound `COc1cc2ncc3c(c(-c4ccc(C#N)cc4)nn3C)c2cc1OCc1ccc(CO)cc1` [Compound 27, 4-[8-(4-Hydroxymethyl-benzyloxy)-7-methoxy-3-methyl-3H-pyrazolo[3,4-c]-quinolin-1-yl]benzonitrile] showed a negative logarithm of the IC50 (pIC50) greater than 7.00.

Regarding `COc1cc2ncc3c(c(-c4ccc(C#N)cc4)nn3C)c2cc1OCc1cccc(CN2CCOCC2)c1` [Compound 28, 4-[7-Methoxy-3-methyl-8-(3-morpholin-4-ylmethyl-benzyloxy)-3H-pyrazolo-[3,4-c]quinolin-1-yl]-benzonitrile], the pIC50 is 6.30 to 7.00.

With `COc1cc2ncc3c(c(-c4ccc(C#N)cc4)nn3C)c2cc1OCc1ccc(-n2cccn2)nc1` [Compound 29, 4-[7-Methoxy-3-methyl-8-(6-pyrazol-1-ylpyridin-3-ylmethoxy)-3H-pyrazolo-[3,4-c]quinolin-1-yl]-benzonitrile], the pIC50 was less than 6.30.

The record behind these values is patent US8802712B2, “Pyrazoloquinolines” (Merck Patent GmbH, priority 2010, dated 2014).
